Laboratory results published in patent publication US7657076B2, “Characterizing biological stimuli by response curves” (Cytokinetics, Inc., priority 2001, dated 2010).

How the values were obtained:
[1] = test system: HUVEC, A498, A548, SF268, SKOV3, and DU145; test: Multivariate quantitative phenotype dose response by image analysis (tubulin feature); format: cell-based, human
From the text: As indicated, phenotypic vectors for given stimuli and level combinations may include multivariate information taken from different cell lines. However, this need not be the case, as all the multivariate data of interest may be obtained from a single cell line. Generally, a researcher will chose one or a range of cell lines that are relevant to the area of interest. For example, if the researcher focuses on oncology applications, the cell lines chosen may include different types of cancers and possibly other cells lines that allow one to identify typical side effects of anti cancer drugs. In one specific embodiment pertaining to oncology, six different cell lines are considered. These include HUVEC (human umbilical vein endothelial cells), A498, A548, SF268, SKOV3, and DU145.
In a more specific embodiment, the parameter set for each dose/compound point in a response path includes parameters derived from DNA markers, Golgi markers, and tubulin markers. […] The size of the nuclei as derived from a DNA marker. […]
The data points are presented within the first three principal components obtained for the entire data set. […] The specific features and cell lines used to construct the quantitative phenotypes shown as points in the plot are set forth above in the “Multivariate Phenotypic Data from Images” and “Selecting Experiments for Providing Response Paths” sections. […]

microtubule assembly = settings: review of the literature; cited from earlier work

C=C1[C@@H](C)[C@H]2[C@H](Cc3ccccc3)NC(=O)[C@]23OC(=O)/C=C/C(=O)CCC[C@@H](C)C/C=C/[C@H]3[C@@H]1O [Cytochalasin A]
change in tubulin biological features with increasing concentration ([1]; all cell lines, eight concentrations): lack of an increase in the tubulin features
affinity of the microtubule side effect compared with affinity for actin ([1]; inferred from common PCA trajectory at lower concentrations): lower affinity
effect on microtubule assembly (microtubule assembly): interferes with microtubule assembly by reacting with sulfhydryl groups
